Results from patent US9493468B2, “Antifungal 5,6-dihydro-4H-pyrrolo[1,2-a][1,4]benzo-diazepines and 6H-pyrrolo[1,2-a][1,4]benzodiazepines substituted with heterocyclic derivatives” (Janssen Pharmaceutica NV, priority 2011, dated 2016).

Legend:
Assay type in all cases: cell-based
Sporothrix schenkii = experiment: Antifungal activity in vitro, resazurin growth inhibition: Sporothrix schenkii (B62482); details: for IC50: read-out: Inf. A: Sporothrix schenkii B62482, pIC50 (converted)
Summary of the method: (§1)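 Compound dilutions, with 64 μM as the highest in-test level, are spotted onto plates, then an inoculum of 10^3 cfu in RPMI-1640 plus 2% glucose (MOPS, pH 7.0±0.1) is added. Plates are incubated at species-dependent time and temperature, up to a week or more at 27° C. for dermatophytes.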

Rhizopus oryzae = experiment: Antifungal activity in vitro, resazurin growth inhibition: Rhizopus oryzae (IHEM5223); details: for IC50: Rhizopus arrhizus, read-out: Inf. J: Rhizopus oryzae IHEM5223, pIC50 (converted)
Protocol: (§2) The standard susceptibility screen is performed in 96-well plates (U-bottom, Greiner Bio-One). Serial dilutions (2-fold or 4-fold) of 20 mM compound stock solutions are made in 100% DMSO, followed by an intermediate dilution step in water. These serial dilutions (10 μl) are then spotted onto test-plates that can be stored in the dark at 4° C. for a maximum period of 2 weeks. An adequate broad dose-range is included with 64 μM as the highest in-test concentration. The culture medium RPMI-1640 is supplemented with L-glutamine, 2% glucose and buffered with 3-(N-morpholino)-propanesulfonic acid (MOPS) at pH 7.0±0.1.
(§3) The different fungal species/isolates (Table 3a) are cryopreserved and 1/1000 diluted in medium just prior to use. A standard inoculum of 200 μl containing 10^3 colony-forming unit (cfu) is then added to each well. A positive control (100% growth=fungal culture without antifungal) and a negative control (0% growth ═RPMI-MOPS medium) are included on each plate. Optimal incubation time and temperature are dependent on the fungal species and vary from 24 h for yeasts (37° C.) to one week or more for dermatophytes (27° C.). Inhibition of fungal growth is measured after adding 10 μl of 0.005% (w/v) resazurin (Sigma Aldrich) to each well, based on the principle that living cells convert the non-fluorescent blue resazurin into the pink and fluorescent resorufin, allowing fluorimetric reading (λex 550 nm and λem 590 nm) after an additional incubation period (‘resa’ time mentioned in Table 3a).

Scedosporium prolificans = experiment: Antifungal activity in vitro, resazurin growth inhibition: Scedosporium prolificans (IHEM21157); details: for IC50: Lomentospora prolificans, read-out: Inf. I: Scedosporium prolificans IHEM21157, pIC50 (converted)
Protocol: as §2, §3

Cryptococcus neoformans = experiment: Antifungal activity in vitro, resazurin growth inhibition: Cryptococcus neoformans (B66663); details: for IC50: read-out: Inf. F: Cryptococcus neoformans B66663, pIC50 (converted)
Summary of the method: as §1

Microsporum canis = experiment: Antifungal activity in vitro, resazurin growth inhibition: Microsporum canis (B68128); details: for IC50: read-out: Inf. B: Microsporum canis B68128, pIC50 (converted)
Summary of the method: (§4)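 Dermatophytes incubated at 27° C. for one week or more with compound, max 64 μM, in RPMI-1640/MOPS pH 7.0±0.1, 10^3 cfu/well. Viability by resazurin-to-resorufin fluorescence, 550/590 nm.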

Rhizomucor miehei = experiment: Antifungal activity in vitro, resazurin growth inhibition: Rhizomucor miehei (IHEM13391); details: for IC50: read-out: Inf. K: Rhizomucor miehei IHEM13391, pIC50 (converted)
Protocol: as §2, §3

Aspergillus fumigatus = experiment: Antifungal activity in vitro, resazurin growth inhibition: Aspergillus fumigatus (B42928); details: for IC50: read-out: Inf. E: Aspergillus fumigatus B42928, pIC50 (converted)
Summary of the method: as §1

[1] = system: Trichophyton mentagrophytes; experiment: Antifungal activity in vitro, resazurin growth inhibition: Trichophyton mentagrophytes (B70554); details: for IC50: read-out: Inf. G: Trichophyton mentagrophytes B70554, pIC50 (converted)
Summary of the method: as §4

Scedosporium apiospermum = experiment: Antifungal activity in vitro, resazurin growth inhibition: Scedosporium apiospermum (IHEM3817); details: for IC50: read-out: Inf. H: Scedosporium apiospermum IHEM3817, pIC50 (converted)
Protocol: as §2, §3

Trichophyton rubrum = experiment: Antifungal activity in vitro, resazurin growth inhibition: Trichophyton rubrum (B68183); details: for IC50: read-out: Inf. C: Trichophyton rubrum B68183, pIC50 (converted)
Summary of the method: as §4

Candida parapsilosis = experiment: Antifungal activity in vitro, resazurin growth inhibition: Candida parapsilosis (B66126); details: for IC50: Lodderomyces parapsilosis, read-out: Inf. D: Candida parapsilosis B66126, pIC50 (converted)
Summary of the method: as §1

Row | Structure (SMILES) | Inf. A: Sporothrix schenkii B62482, pIC50 (Sporothrix schenkii) | Inf. J: Rhizopus oryzae IHEM5223, pIC50 (Rhizopus oryzae) | Inf. I: Scedosporium prolificans IHEM21157, pIC50 (Scedosporium prolificans) | Inf. F: Cryptococcus neoformans B66663, pIC50 (Cryptococcus neoformans) | Inf. B: Microsporum canis B68128, pIC50 (Microsporum canis) | Inf. K: Rhizomucor miehei IHEM13391, pIC50 (Rhizomucor miehei) | Inf. E: Aspergillus fumigatus B42928, pIC50 (Aspergillus fumigatus) | Inf. G: Trichophyton mentagrophytes B70554, pIC50 [1] | Inf. H: Scedosporium apiospermum IHEM3817, pIC50 (Scedosporium apiospermum) | Inf. C: Trichophyton rubrum B68183, pIC50 (Trichophyton rubrum) | Inf. D: Candida parapsilosis B66126, pIC50 (Candida parapsilosis) | other results
1 | Cl.Clc1cccc2c1CNC(c1cc3ccccc3o1)c1cccn1-2 (racemic) [Compound 30] | 4.89 | <4.19 | <4.19 | <4.19 | 6.27 | <4.19 | 6.32 | 6.15 | 4.94 | 6.29 | 5.22 | 
2 | Cc1cccc2c1CNC(c1cc3cc(Cl)ccc3o1)c1cccn1-2.Cl (racemic) [Compound 34] | <4.19 | <4.19 | 5.66 | <4.19 | 6.40 | <4.19 | <4.19 | 6.22 | <4.19 | 6.72 | <4.19 | 
3 | Fc1ccc2oc(C3NCc4c(Cl)cccc4-n4cccc43)cc2c1 (racemic) [Compound 47] | <4.19 | <4.19 | 6.38 | <4.19 | 5.84 | 4.81 | 4.91 | 5.08 | 6.03 | 6.25 | <4.19 | 
4 | Cc1cccc2c1-n1cccc1C(c1cc3ccccc3s1)NC2.Cl (racemic) [Compound 55] | 5.04 | <4.19 | 5.47 | 5.32 | 5.70 | <4.19 | 5.55 | 5.72 | 4.86 | 6.30 | <4.19 | 
5 | Cc1cccc2c1CN=C(c1cc3ccccc3s1)c1cccn1-2 [Compound 2] |  |  |  |  |  |  |  |  |  |  |  | IC50 (Sporothrix schenkii): 646 nM; IC50 (Rhizopus oryzae): > 64600 nM; IC50 (Scedosporium prolificans): 1620 nM; IC50 (Cryptococcus neoformans): 2000 nM; IC50 (Microsporum canis): 331 nM; IC50 (Rhizomucor miehei): > 64600 nM; IC50 (Aspergillus fumigatus): 2000 nM; IC50 [1]: 427 nM; IC50 (Scedosporium apiospermum): 525 nM; IC50 (Trichophyton rubrum): 166 nM; IC50 (Candida parapsilosis): > 64600 nM
6 | Clc1cccc2c1CN=C(c1ccc3sccc3c1)c1cccn1-2 [Compound 9] |  |  |  |  |  |  |  |  |  |  |  | IC50 (Sporothrix schenkii): 1660 nM; IC50 (Rhizopus oryzae): > 64600 nM; IC50 (Scedosporium prolificans): 39.8 nM; IC50 (Cryptococcus neoformans): 646 nM; IC50 (Microsporum canis): 107 nM; IC50 (Rhizomucor miehei): 2340 nM; IC50 (Aspergillus fumigatus): 12.9 nM; IC50 [1]: 97.7 nM; IC50 (Scedosporium apiospermum): 550 nM; IC50 (Trichophyton rubrum): 36.3 nM; IC50 (Candida parapsilosis): 603 nM
7 | Clc1ccc(C2=NCc3c(Cl)cccc3-n3cccc32)cn1 [Compound 77] | 4.52 | <4.19 | 5.57 | 5.03 | 5.67 | <4.19 | 6.05 | 5.71 | 4.88 | 6.22 | 4.69 | 

The next lines start with results.

Row | Inf. A: Sporothrix schenkii B62482, pIC50 (Sporothrix schenkii) | Inf. J: Rhizopus oryzae IHEM5223, pIC50 (Rhizopus oryzae) | Inf. I: Scedosporium prolificans IHEM21157, pIC50 (Scedosporium prolificans) | Inf. F: Cryptococcus neoformans B66663, pIC50 (Cryptococcus neoformans) | Inf. B: Microsporum canis B68128, pIC50 (Microsporum canis) | Inf. K: Rhizomucor miehei IHEM13391, pIC50 (Rhizomucor miehei) | Inf. E: Aspergillus fumigatus B42928, pIC50 (Aspergillus fumigatus) | Inf. G: Trichophyton mentagrophytes B70554, pIC50 [1] | Inf. H: Scedosporium apiospermum IHEM3817, pIC50 (Scedosporium apiospermum) | Inf. C: Trichophyton rubrum B68183, pIC50 (Trichophyton rubrum) | Inf. D: Candida parapsilosis B66126, pIC50 (Candida parapsilosis) | Structure (SMILES) | other results
8 | 5.17 | 5.50 | 6.38 | 5.28 | 6.36 | 4.52 | 6.00 | 6.40 | 5.68 | 6.99 | 5.12 | CC(C)n1ccc(C2=NCc3c(Cl)cccc3-n3cccc32)cc1=O [Compound 70] | 
9 | 4.44 | <4.19 | 6.88 | <4.19 | 5.91 | <4.19 | 5.25 | 6.18 | 6.29 | 6.31 | 4.92 | CCc1ccc(C2=NCc3c(Cl)cccc3-n3cccc32)cn1 [Compound 74] | 
10 | 4.46 | <4.19 | 5.46 | 4.82 | 6.34 | 4.49 | 4.72 | 5.00 | 5.07 | 5.75 | <4.19 | CCc1ccc(C2=NCc3c(Cl)cc(Cl)cc3-n3cccc32)cn1 [Compound 76] | 
11 | <4.19 | <4.19 | 6.28 | <4.19 | 5.72 | <4.19 | 6.63 | 5.76 | 6.12 | 6.33 | 4.69 | Clc1cc(C2=NCc3c(Cl)cccc3-n3cccc32)cnc1Cl [Compound 79] | 
12 | <4.19 | <4.19 | 6.24 | <4.19 | 6.37 | <4.19 | 6.28 | 6.24 | 6.01 | 6.85 | 5.285 | CC(F)(F)c1ccc(C2=NCc3c(Cl)cccc3-n3cccc32)cn1 [Compound 82] | 
13 | 5.70 | <4.19 |  | 5.30 |  | <4.19 |  | 7.07 | <4.19 |  | 5.70 | Clc1cccc2c1CN=C(c1cc3ccccc3o1)c1cccn1-2 [Compound 118] | 
14 | 5.33 |  | 6.00 | 5.33 | 5.00 |  | 5.33 | 5.33 | 5.00 | 6.00 | <4 | Clc1ccc2c(c1)-n1cccc1C(c1cnc3ccccc3c1)=NC2 [Compound 206] | 
